Reference: PMC5421785, “Citrullination only infrequently impacts peptide binding to HLA class II MHC” (PLoS ONE, 2017)
Like-named read-outs stand apart in the source and are kept apart here. Square brackets hold non-standard residues; d marks the D form. Ends that are not written are not given here. Peptide text beside a SMILES is read from it. Cit = NC(=O)NCCC[C@H](N)C(=O)O

Experiments:
Assay in all cases: HLA class II peptide binding, inhibition of radiolabeled peptide binding to purified MHC
[1] = target: T1, DPB1*04:01 (Homo sapiens, UniProt P04440+P20036)
T1 construct: EBV transformed homozygous cell lines were used as sources of MHC molecules; endogenous in cells; host or cells: EBV transformed homozygous cell lines
T1 sequence (P04440 30-258): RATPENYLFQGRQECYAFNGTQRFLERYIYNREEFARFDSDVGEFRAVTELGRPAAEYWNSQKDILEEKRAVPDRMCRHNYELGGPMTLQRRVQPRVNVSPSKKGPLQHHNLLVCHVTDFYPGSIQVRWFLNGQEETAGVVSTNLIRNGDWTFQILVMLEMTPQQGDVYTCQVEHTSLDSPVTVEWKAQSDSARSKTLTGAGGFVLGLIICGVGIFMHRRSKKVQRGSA
T1 sequence (P20036 29-260 partner): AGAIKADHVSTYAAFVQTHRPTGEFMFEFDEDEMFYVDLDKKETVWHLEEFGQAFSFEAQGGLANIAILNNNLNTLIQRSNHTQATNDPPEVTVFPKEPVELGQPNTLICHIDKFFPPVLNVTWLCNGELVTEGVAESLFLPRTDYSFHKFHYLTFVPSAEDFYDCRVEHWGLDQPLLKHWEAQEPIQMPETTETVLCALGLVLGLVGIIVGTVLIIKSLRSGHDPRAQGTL

[2] = target: T2, HLA-DRB1*01:01 (Homo sapiens, UniProt P01903+P01911, A100R/D57E/F55L/F60I/F76Y/I96L/L162R/M171V/P40L/Q125E/R42F/V115G/Y59C)
T2 construct: EBV transformed homozygous cell lines were used as sources of MHC molecules; endogenous in cells; host or cells: EBV transformed homozygous cell lines

[3] = target: T3, HLA-DRB1*04:01 (Homo sapiens, UniProt P01903+P01911, A100K/A169T/F76Y/I96L/K127E/L162R/M171V/N62H/P40V/Q125Y/R42H/S133A/S149N/S66Y/V115G/V209L/W38E)
T3 construct: EBV transformed homozygous cell lines were used as sources of MHC molecules; endogenous in cells; host or cells: EBV transformed homozygous cell lines

[4] = read-out: DRB1*01:01 binding capacity, WT peptide (IC50 nM)
[5] = read-out: DRB1*04:01 binding capacity, WT peptide (IC50 nM)
[6] = citrullinated 15-mer (X), purified MHC, inhibition of radiolabeled peptide binding, dash = IC50 >40,000 nM, read-out: DRB1*01:01 binding capacity, Cit peptide (IC50 nM)
[7] = citrullinated 15-mer (X), purified MHC, inhibition of radiolabeled peptide binding, dash = IC50 >40,000 nM, read-out: DRB1*04:01 binding capacity, Cit peptide (IC50 nM)
[8] = wild-type (unmodified Arg) 15-mer peptide, purified HLA-DRB1*01:01, read-out: DRB1*01:01 binding capacity, WT peptide (IC50 nM)
[9] = wild-type (unmodified Arg) 15-mer peptide, purified HLA-DRB1*04:01, read-out: DRB1*04:01 binding capacity, WT peptide (IC50 nM)
[10] = citrullinated 15-mer peptide (X = citrulline), purified HLA-DRB1*01:01, read-out: DRB1*01:01 binding capacity, Cit peptide (IC50 nM)
[11] = citrullinated 15-mer peptide (X = citrulline), purified HLA-DRB1*04:01, read-out: DRB1*04:01 binding capacity, Cit peptide (IC50 nM)
[12] = ratio of WT IC50 to Cit IC50, >1 = citrullination increases binding

CC(C)C[C@H](NC(=O)[C@H](CCCCN)NC(=O)[C@H](CC(C)C)NC(=O)[C@@H](NC(=O)[C@H](CC(N)=O)NC(=O)[C@H](CCC(N)=O)NC(=O)[C@H](CCCCN)NC(=O)[C@@H](NC(=O)[C@H](Cc1ccc(O)cc1)NC(=O)[C@H](CCCCN)NC(=O)[C@@H]1CCCN1)C(C)C)[C@@H](C)O)C(=O)N[C@@H](C)C(=O)N[C@H](C(=O)O)[C@@H](C)O [HA 307–319, reference compound]
IC50 [1]: 39100 nM

NDKARVEVERDNLAE [Vimentin 166 WT]
IC50 [2, 4]: 524 nM
IC50 [3, 5]: 884 nM

CC(C)C[C@H](NC(=O)[C@H](CCCNC(=N)N)NC(=O)[C@H](CO)NC(=O)[C@H](CCCCN)NC(=O)CNC(=O)[C@H](CCC(N)=O)NC(=O)CNC(=O)[C@H](CCCCN)NC(=O)[C@H](CC(C)C)NC(=O)[C@H](CCC(N)=O)NC(=O)[C@@H](N)CCC(=O)O)C(=O)NCC(=O)N[C@@H](CC(=O)O)C(=O)N[C@@H](CC(C)C)C(=O)N[C@@H](Cc1ccc(O)cc1)C(=O)O [Vimentin 136 WT]
IC50 [2, 4]: 3720 nM
IC50 [3, 5]: > 40000 nM

CC(C)C[C@H](NC(=O)[C@H](CCC(N)=O)NC(=O)[C@H](CC(=O)O)NC(=O)[C@@H](NC(=O)[C@H](CCC(N)=O)NC(=O)[C@H](CCCNC(=N)N)NC(=O)[C@H](CCCNC(N)=O)NC(=O)[C@H](CC(C)C)NC(=O)[C@@H](N)CCC(=O)O)C(C)C)C(=O)N[C@H](C(=O)N[C@@H](CC(N)=O)C(=O)N[C@@H](CC(=O)O)C(=O)N[C@@H](CCCCN)C(=O)N[C@@H](C)C(=O)N[C@@H](CCCNC(=N)N)C(=O)O)[C@@H](C)O [ELXRQVDQLTNDKAR] (H-EL[Cit]RQVDQLTNDKAR-OH)
IC50 [2, 6]: 614 nM
IC50 [3, 7]: 13400 nM

TNESLERQMREMEEN [Vimentin 336 WT]
IC50 [2, 8]: 15900 nM
IC50 [3, 9]: > 40000 nM

SPGGVYATRSSAVRL [Vimentin 56 WT]
IC50 [2, 4]: 7.2 nM
IC50 [3, 5]: 1150 nM

GIVGLPGQRGERGFP [Collagen 981 WT]
IC50 [2, 8]: 6.4 nM
IC50 [3, 9]: 2450 nM

CC(C)C[C@H](NC(=O)[C@H](CCCNC(N)=O)NC(=O)[C@H](CO)NC(=O)[C@H](CCCCN)NC(=O)CNC(=O)[C@H](CCC(N)=O)NC(=O)CNC(=O)[C@H](CCCCN)NC(=O)[C@H](CC(C)C)NC(=O)[C@H](CCC(N)=O)NC(=O)[C@@H](N)CCC(=O)O)C(=O)NCC(=O)N[C@@H](CC(=O)O)C(=O)N[C@@H](CC(C)C)C(=O)N[C@@H](Cc1ccc(O)cc1)C(=O)O [EQLKGQGKSXLGDLY]
IC50 [2, 6]: 5380 nM
IC50 [3, 7]: > 40000 nM

CC[C@H](C)[C@H](NC(=O)[C@@H](N)CCC(=O)O)C(=O)N[C@@H](C)C(=O)N[C@H](C(=O)N[C@@H](Cc1ccc(O)cc1)C(=O)N[C@@H](CCCNC(N)=O)C(=O)N[C@@H](CCCCN)C(=O)N[C@@H](CC(C)C)C(=O)N[C@@H](CC(C)C)C(=O)N[C@@H](CCC(=O)O)C(=O)NCC(=O)N[C@@H](CCC(=O)O)C(=O)N[C@@H](CCC(=O)O)C(=O)N[C@@H](CO)C(=O)N[C@@H](CCCNC(=N)N)C(=O)O)[C@@H](C)O [EIATYXKLLEGEESR] (H-EIATY[Cit]KLLEGEESR-OH)
IC50 [2, 10]: 360 nM
IC50 [3, 11]: 3810 nM

CSCC[C@H](NC(=O)[C@@H]1CCCN1C(=O)CNC(=O)[C@H](CCC(N)=O)NC(=O)[C@H](C)NC(=O)CNC(=O)[C@H](C)NC(=O)[C@H](CCC(=O)O)NC(=O)CNC(=O)[C@H](CCCNC(N)=O)NC(=O)[C@H](CC(=O)O)NC(=O)CN)C(=O)NCC(=O)N1CCC[C@H]1C(=O)N[C@@H](CO)C(=O)O [GDXGEAGAQGPMGPS] (H-GD[Cit]GEAGAQGPMGPS-OH; N-terminus and C-terminus assumed)
IC50 [2, 10]: > 40000 nM
DRB1*01:01 binding capacity, WT/cit ratio [2, 12]: 0.2
IC50 [3, 11]: > 40000 nM
DRB1*04:01 binding capacity, WT/cit ratio [3, 12]: 1.0

CSCC[C@H](NC(=O)[C@H](CCCNC(=N)N)NC(=O)[C@H](CCCNC(N)=O)NC(=O)[C@H](Cc1ccc(O)cc1)NC(=O)[C@H](CO)NC(=O)[C@H](CO)NC(=O)[C@H](CO)NC(=O)[C@H](CO)NC(=O)[C@@H](N)C(C)C)C(=O)N[C@@H](Cc1ccccc1)C(=O)NCC(=O)NCC(=O)N1CCC[C@H]1C(=O)NCC(=O)N[C@H](C(=O)O)[C@@H](C)O [VSSSSYXRMFGGPGT] (H-VSSSSY[Cit]RMFGGPGT-OH)
IC50 [2, 6]: 37 nM
IC50 [3, 7]: 906 nM

CSCC[C@H](NC(=O)[C@H](CCC(=O)O)NC(=O)[C@H](CCC(=O)O)NC(=O)[C@H](CCCCN)NC(=O)[C@H](CCSC)NC(=O)[C@@H](N)CC(N)=O)C(=O)N[C@@H](C)C(=O)N[C@@H](CCCNC(=N)N)C(=O)N[C@@H](Cc1c[nH]cn1)C(=O)N[C@@H](CC(C)C)C(=O)N[C@@H](CCCNC(=N)N)C(=O)N[C@@H](CCC(=O)O)C(=O)N[C@@H](Cc1ccc(O)cc1)C(=O)N[C@@H](CCC(N)=O)C(=O)N[C@@H](CC(=O)O)C(=O)O [Vimentin 371 WT]
IC50 [2, 8]: 3020 nM
IC50 [3, 9]: > 40000 nM

DGPKGARGDSGPPGR [Collagen 926 WT]
IC50 [2, 8]: 26700 nM
IC50 [3, 9]: 27400 nM

CC(C)C[C@H](NC(=O)[C@H](CCCNC(=N)N)NC(=O)[C@@H](NC(=O)[C@H](C)NC(=O)[C@H](CO)NC(=O)[C@H](CO)NC(=O)[C@H](CCCNC(N)=O)NC(=O)[C@@H](NC(=O)[C@H](C)NC(=O)[C@@H](N)Cc1ccc(O)cc1)[C@@H](C)O)C(C)C)C(=O)N[C@@H](CCCNC(=N)N)C(=O)N[C@@H](CO)C(=O)N[C@@H](CO)C(=O)N[C@H](C(=O)N1CCC[C@H]1C(=O)O)C(C)C [YATXSSAVRLRSSVP] (H-YAT[Cit]SSAVRLRSSVP-OH)
IC50 [2, 6]: 12 nM
IC50 [3, 7]: 3720 nM

MIRLGAPQTLVLLTL [Collagen 1 WT]
IC50 [2, 8]: 315 nM
IC50 [3, 9]: 7130 nM

CSCC[C@H](N)C(=O)N[C@@H](C)C(=O)N[C@@H](CCCNC(=N)N)C(=O)N[C@@H](Cc1c[nH]cn1)C(=O)N[C@@H](CC(C)C)C(=O)N[C@@H](CCCNC(N)=O)C(=O)N[C@@H](CCC(=O)O)C(=O)N[C@@H](Cc1ccc(O)cc1)C(=O)N[C@@H](CCC(N)=O)C(=O)N[C@@H](CC(=O)O)C(=O)N[C@@H](CC(C)C)C(=O)N[C@@H](CC(C)C)C(=O)N[C@@H](CC(N)=O)C(=O)N[C@H](C(=O)N[C@@H](CCCCN)C(=O)O)C(C)C [MARHLXEYQDLLNVK] (H-MARHL[Cit]EYQDLLNVK-OH)
IC50 [2, 10]: 577 nM
IC50 [3, 11]: 3130 nM

CC[C@H](C)[C@H](NC(=O)[C@H](CCCNC(N)=O)NC(=O)[C@H](CO)NC(=O)[C@H](CCC(=O)O)NC(=O)[C@H](CCC(=O)O)NC(=O)CN)C(=O)N[C@@H](CO)C(=O)N[C@@H](CC(C)C)C(=O)N1CCC[C@H]1C(=O)N[C@@H](CC(C)C)C(=O)N1CCC[C@H]1C(=O)N[C@@H](CC(N)=O)C(=O)N[C@@H](Cc1ccccc1)C(=O)N[C@@H](CO)C(=O)N[C@@H](CO)C(=O)O [GEESXISLPLPNFSS] (H-GEES[Cit]ISLPLPNFSS-OH)
IC50 [2, 10]: 646 nM
IC50 [3, 11]: 8410 nM

CC(C)[C@H](NC(=O)[C@H](Cc1ccc(O)cc1)NC(=O)[C@H](CO)NC(=O)[C@H](CCCNC(N)=O)NC(=O)[C@H](CO)NC(=O)[C@H](CO)NC(=O)[C@H](CO)NC(=O)[C@@H]1CCCN1C(=O)[C@H](CCCNC(=N)N)NC(=O)[C@H](CO)NC(=O)[C@H](C)N)C(=O)N[C@H](C(=O)N[C@H](C(=O)N[C@@H](CO)C(=O)N[C@H](C(=O)O)[C@@H](C)O)[C@@H](C)O)[C@@H](C)O [ASRPSSSXSYVTTST] (H-ASRPSSS[Cit]SYVTTST-OH)
IC50 [2, 6]: 12900 nM
IC50 [3, 7]: 1630 nM

CC(C)C[C@H](NC(=O)[C@H](CO)NC(=O)[C@H](CO)NC(=O)[C@H](Cc1ccccc1)NC(=O)[C@H](CC(N)=O)NC(=O)[C@@H]1CCCN1)C(=O)N[C@@H](CC(N)=O)C(=O)N[C@@H](CC(C)C)C(=O)N[C@@H](CCCNC(N)=O)C(=O)N[C@@H](CCC(=O)O)C(=O)N[C@H](C(=O)N[C@@H](CC(N)=O)C(=O)N[C@@H](CC(C)C)C(=O)N[C@@H](CC(=O)O)C(=O)N[C@@H](CO)C(=O)O)[C@@H](C)O [PNFSSLNLXETNLDS] (H-PNFSSLNL[Cit]ETNLDS-OH)
IC50 [2, 10]: 448 nM
IC50 [3, 11]: 1950 nM
